{"source": "patent US20240067932A1", "about": "“METHODS AND COMPOSITIONS FOR GENERATING HEMOGENIC ENDOTHELIAL CELLS FROM PLURIPOTENT STEM CELLS” (Trailhead Biosystems Inc., priority 2022, published 2024)", "assay_type_in_all_cases": "cell-based, human", "key": {"[1]": {"tested_on": "early mesoderm progenitors", "test": "8-factor HD-DoE experiments optimized for maximum GATA2 expression (qPCR, partial least squares models)", "conditions": "first model, FIG. 2; factors Forskolin, VEGF, FGF2, Albumax, SUN1162, Hydrocortisone, SB341542, Resveratrol; 3 days after stage 1", "excerpt": "The early mesoderm progenitors were used for further differentiation along the endothelial lineage using a High-Dimensional Design of Experiments (HD-DoE) approach to simultaneously test multiple process inputs (e.g., small molecule agonists or antagonists) on output responses, such as gene expression. Based on predicted conditions that maximize expression of hemogenic endothelial enriched genes such as CD31, CD34, CD143, CD309, GATA2, Fill and RUNX1, vWF, a complex recipe was developed for generating differentiated hemogenic endothelial cells from the early mesoderm progenitors, composed of 8 agents as shown below in Table 1:\nFirst, undifferentiated iPSC were grown for 48 h in CDM2 media containing 6 uM CHIR99021 (referred to herein as stage 1). Then stage 2 media was engineered. The basis of this was an 8-factor HD-DoE experiment with focus on differentiation of cells toward the hemogenic endothelial lineage for an additional 3 days after termination of stage 1 treatment. To test the effectors, 48 different combinations of effectors generated using Design-of-Experiments compression through D-optimality were robotically prepared. The effector combinations were prepared in a basal media and were subsequently added to the cells, which were then allowed to differentiate. Three days later, RNA extraction was performed, and gene expression was obtained using quantitative PCR analysis. The data were normalized and modeled using partial least squares regression analysis to the effector design, resulting in the generation of gene-specific models, which after model tuning for maximal Q2 predictive power, provided explanation of the effectors ability to control the expression of individual genes, combinatorically, and individually. Solutions within the tested space could then be explored to address desirability. For stage 2, conditions were created inducing the expression of GATA2, a transcription factor identified as a master regulator of hematopoiesis. GATA2 promotes the generation of HECs and facilitates endothelial-to-hematopoietic transition (EHT). GATA2 also suppresses cardiac differentiation at the mesoderm stage, directing cells to a hematopoietic fate. Optimizing for maximal expression of GATA2 led to a robust solution. […] In this model, high levels of KDR, important receptor for VEGF signaling, were observed. […] This model was derived from initial testing of eight factors including: Forskolin, VEGF, FGF2, Albumax, SUN1162, Hydrocortisone, SB341542, and Resveratrol. […] Factors with low contribution were excluded."}, "[2]": {"tested_on": "early mesoderm progenitors", "test": "Factor criticality / dynamic profile analysis of gene expression on removal of a finalized effector"}, "[3]": {"tested_on": "early mesoderm progenitors", "test": "8-factor HD-DoE experiments optimized for maximum GATA2 expression (qPCR, partial least squares models)"}, "[4]": {"conditions": "model FIG. 7, named factor removed, others kept"}, "[5]": {"conditions": "model FIG. 9, named factor removed"}}}
{"substance": "VEGF", "values": [{"measurement": "factor contribution (maximum expression of GATA2)", "setting": "[1]", "result": 46}, {"measurement": "expression level of GATA2", "setting": "[2]; model FIG. 7 (VEGF, Forskolin, FGF2), factor present", "result": 583}, {"measurement": "expression level of CD31", "setting": "[2]; model FIG. 7, factor present", "result": 879}, {"measurement": "expression level of CD34", "setting": "[2]; model FIG. 7, factor present", "result": 2350}, {"measurement": "expression level of CD44", "setting": "[2]; model FIG. 7, factor present", "result": 578}, {"measurement": "expression level of FLI1 (Fill [sic])", "setting": "[2]; model FIG. 7, factor present", "result": 3971}, {"measurement": "expression level of KDR", "setting": "[2]; model FIG. 7, factor present", "result": 33751}, {"measurement": "expression level of TAL1", "setting": "[2]; model FIG. 7, factor present", "result": 370}, {"measurement": "expression level of CD31", "setting": "[2]; [4]", "result": 2}, {"measurement": "expression level of CD34", "setting": "[2]; [4]", "result": 150}, {"measurement": "expression level of CD44", "setting": "[2]; [4]", "result": 349}, {"measurement": "expression level of FLI1 (Fill [sic])", "setting": "[2]; [4]", "result": 241}, {"measurement": "expression level of GATA2", "setting": "[2]; [4]", "result": 236}, {"measurement": "expression level of KDR", "setting": "[2]; [4]", "result": 16856}, {"measurement": "expression level of TAL1", "setting": "[2]; [4]", "result": 18}, {"measurement": "effect on expression of hemogenic endothelial genes analyzed (in words)", "setting": "[2]; model FIG. 8", "result": "critical for increasing the expression of all hemogenic endothelial genes analyzed"}, {"measurement": "expression level of CD31", "setting": "[2]; model FIG. 9, factor present", "result": 869}, {"measurement": "expression level of CD34", "setting": "[2]; model FIG. 9, factor present", "result": 2341}, {"measurement": "expression level of FLI1 (Fill [sic])", "setting": "[2]; model FIG. 9, factor present", "result": 2292}, {"measurement": "expression level of KDR", "setting": "[2]; model FIG. 9, factor present", "result": 7518}, {"measurement": "expression level of CD31", "setting": "[2]; [5]", "result": 262}, {"measurement": "expression level of CD34", "setting": "[2]; [5]", "result": 868}, {"measurement": "expression level of FLI1 (Fill [sic])", "setting": "[2]; [5]", "result": 974}, {"measurement": "expression level of KDR", "setting": "[2]; [5]", "result": 6209}, {"measurement": "effect on expression of hemogenic endothelial genes analyzed (in words)", "setting": "[2]; model FIG. 10", "result": "critical for expression of all hemogenic endothelial genes analyzed"}, {"measurement": "effect on expression of hemogenic endothelial genes analyzed (in words)", "setting": "[2]; model FIG. 11", "result": "critical for expression of all hemogenic endothelial genes analyzed"}, {"measurement": "effect towards GATA2 induction in 4 out of 5 models", "setting": "[3]; across models", "result": "strong positive effect towards GATA2 induction"}, {"measurement": "factor contribution (maximum expression of GATA2)", "setting": "[3]; fifth model, FIG. 6, factors VPA, SCF, BMP4, EFG, FLT3L, Arginine, Retinoic Acid, VEGF", "result": 22}, {"measurement": "factor contribution (maximum expression of GATA2)", "setting": "[3]; fourth model, FIG. 5, factors VEGF, FGF2, Sphingosine 1 phosphate, V11298, Pyrintegrin, Erythropoietin, L-ascorbic acid, XAV939", "result": 22}, {"measurement": "factor contribution (maximum expression of GATA2)", "setting": "[3]; second model, FIG. 3, factors CHIR, VEGF, FGF2, TTNBP, AGN194310, Y27632, Thymosin-β4, heparin", "result": 25}]}
